From ChEMBL document CHEMBL3885861, “Open TG-GATES”

Species on record: Rattus norvegicus
Experiment: Open TG-GATES - Regimen: Single
Type: toxicity, organism-based, Sprague-Dawley
Parameters: regimen Single, gender Male, age 6 weeks
Conditions: in vivo, po, route gavage; for APTT / Bas / Eos / Fbg / Hb / Ht / Lym / MCH / MCHC / MCV / Mono / Neu / PT / Plat / RBC / Ret / WBC: tissue Blood; for KIDNEY_L / KIDNEY_R / KIDNEY_TOTAL: tissue Kidney; for LIVER: tissue Liver; for A/G / ALP / ALT / AST / BUN / CRE / Ca / Cl / DBIL / GLC / IP / K / LDH / Na / PL / RALB / TBIL / TC / TG / TP / gamma-GTP: tissue Plasma
[1] = 100 mg/kg, 3 h, dose level Middle
[2] = 100 mg/kg, 6 h, dose level Middle
[3] = 100 mg/kg, 9 h, dose level Middle
[4] = 100 mg/kg, 24 h, dose level Middle
[5] = 300 mg/kg, 3 h, dose level High
[6] = 300 mg/kg, 6 h, dose level High
[7] = 300 mg/kg, 9 h, dose level High
[8] = 300 mg/kg, 24 h, dose level High

Cc1cccc(Nc2ccccc2C(=O)O)c1C [MEFENAMIC ACID]
TERMINAL_BW [1]: 218.5 g
APTT [1]: 19.2 s
Bas [1]: 0%
Eos [1]: 0.8%
Fbg [1]: 218.2 mg/dL
Hb [1]: 13.3 g/dL
Ht [1]: 37.3%
Lym [1]: 80%
MCH [1]: 21.8 pg
MCHC [1]: 35.5%
MCV [1]: 61.4 fL
Mono [1]: 2.2%
Neu [1]: 15%
PT [1]: 12.2 s
Plat [1]: 114.3 x10_4/uL
RBC [1]: 608.6 x10_4/ul
Ret [1]: 7.4%
WBC [1]: 104.3 x10_2/uL
KIDNEY_L [1]: 1 g
KIDNEY_R [1]: 1 g
KIDNEY_TOTAL [1]: 1.9 g
LIVER [1]: 9.9 g
A/G [1]: 1.6
ALP [1]: 1058 IU/L
ALT [1]: 37.6 IU/L
AST [1]: 67.8 IU/L
BUN [1]: 12.4 mg/dL
CRE [1]: 0.4 mg/dL
Ca [1]: 10.7 mg/dL
Cl [1]: 103.4 meq/L
DBIL [1]: 0.074 mg/dL
GLC [1]: 196.8 mg/dL
IP [1]: 8.6 mg/dL
K [1]: 4.1 meq/L
LDH [1]: 184 IU/L
Na [1]: 140.8 meq/L
PL [1]: 141.4 mg/dL
RALB [1]: 3.4 g/dL
TBIL [1]: 0.1 mg/dL
TC [1]: 78.6 mg/dL
TG [1]: 43.4 mg/dL
TP [1]: 5.5 g/dL
gamma-GTP [1]: 1.6 IU/L
TERMINAL_BW [2]: 215.4 g
APTT [2]: 18.2 s
Bas [2]: 0%
Eos [2]: 1%
Fbg [2]: 225.6 mg/dL
Hb [2]: 13 g/dL
Ht [2]: 37.2%
Lym [2]: 76.2%
MCH [2]: 21.7 pg
MCHC [2]: 35.1%
MCV [2]: 61.8 fL
Mono [2]: 2.6%
Neu [2]: 18.6%
PT [2]: 12.6 s
Plat [2]: 108.7 x10_4/uL
RBC [2]: 602.4 x10_4/ul
Ret [2]: 7.6%
WBC [2]: 76.8 x10_2/uL
KIDNEY_L [2]: 1 g
KIDNEY_R [2]: 1 g
KIDNEY_TOTAL [2]: 2 g
LIVER [2]: 9.6 g
A/G [2]: 1.6
ALP [2]: 782.4 IU/L
ALT [2]: 36.8 IU/L
AST [2]: 64.2 IU/L
BUN [2]: 11 mg/dL
CRE [2]: 0.3 mg/dL
Ca [2]: 10.5 mg/dL
Cl [2]: 103 meq/L
DBIL [2]: 0.064 mg/dL
GLC [2]: 185.4 mg/dL
IP [2]: 9 mg/dL
K [2]: 4.1 meq/L
LDH [2]: 160.4 IU/L
Na [2]: 139.8 meq/L
PL [2]: 139.6 mg/dL
RALB [2]: 3.3 g/dL
TBIL [2]: 0.1 mg/dL
TC [2]: 77.6 mg/dL
TG [2]: 48.4 mg/dL
TP [2]: 5.4 g/dL
gamma-GTP [2]: 1.4 IU/L
TERMINAL_BW [3]: 211.6 g
APTT [3]: 17.9 s
Bas [3]: 0%
Eos [3]: 1%
Fbg [3]: 216.4 mg/dL
Hb [3]: 13.6 g/dL
Ht [3]: 38.1%
Lym [3]: 77.2%
MCH [3]: 22.3 pg
MCHC [3]: 35.8%
MCV [3]: 62.4 fL
Mono [3]: 2.2%
Neu [3]: 18.2%
PT [3]: 12.7 s
Plat [3]: 112.5 x10_4/uL
RBC [3]: 611 x10_4/ul
Ret [3]: 7.2%
WBC [3]: 77.1 x10_2/uL
KIDNEY_L [3]: 0.9 g
KIDNEY_R [3]: 0.9 g
KIDNEY_TOTAL [3]: 1.8 g
LIVER [3]: 8.6 g
A/G [3]: 1.6
ALP [3]: 955.2 IU/L
ALT [3]: 30.8 IU/L
AST [3]: 61.6 IU/L
BUN [3]: 12.2 mg/dL
CRE [3]: 0.4 mg/dL
Ca [3]: 10.4 mg/dL
Cl [3]: 103 meq/L
DBIL [3]: 0.06 mg/dL
GLC [3]: 196.2 mg/dL
IP [3]: 9.4 mg/dL
K [3]: 3.7 meq/L
LDH [3]: 184.6 IU/L
Na [3]: 140.2 meq/L
PL [3]: 127.8 mg/dL
RALB [3]: 3.4 g/dL
TBIL [3]: 0.1 mg/dL
TC [3]: 72.4 mg/dL
TG [3]: 29.6 mg/dL
TP [3]: 5.5 g/dL
gamma-GTP [3]: 1 IU/L
TERMINAL_BW [4]: 227 g
APTT [4]: 17.3 s
Bas [4]: 0%
Eos [4]: 1%
Fbg [4]: 209.2 mg/dL
Hb [4]: 13 g/dL
Ht [4]: 37.3%
Lym [4]: 72.6%
MCH [4]: 22.1 pg
MCHC [4]: 35%
MCV [4]: 63.2 fL
Mono [4]: 2.8%
Neu [4]: 21.2%
PT [4]: 12.1 s
Plat [4]: 119.7 x10_4/uL
RBC [4]: 590.4 x10_4/ul
Ret [4]: 7%
WBC [4]: 99.5 x10_2/uL
KIDNEY_L [4]: 1 g
KIDNEY_R [4]: 1.1 g
KIDNEY_TOTAL [4]: 2.1 g
LIVER [4]: 11 g
A/G [4]: 1.6
ALP [4]: 883 IU/L
ALT [4]: 39.2 IU/L
AST [4]: 67.2 IU/L
BUN [4]: 14.2 mg/dL
CRE [4]: 0.4 mg/dL
Ca [4]: 10.9 mg/dL
Cl [4]: 102.8 meq/L
DBIL [4]: 0.092 mg/dL
GLC [4]: 190.6 mg/dL
IP [4]: 7.5 mg/dL
K [4]: 4.3 meq/L
LDH [4]: 196.4 IU/L
Na [4]: 139.8 meq/L
PL [4]: 151.8 mg/dL
RALB [4]: 3.5 g/dL
TBIL [4]: 0.1 mg/dL
TC [4]: 81 mg/dL
TG [4]: 88.8 mg/dL
TP [4]: 5.6 g/dL
gamma-GTP [4]: 1.4 IU/L
TERMINAL_BW [5]: 215.2 g
APTT [5]: 18.8 s
Bas [5]: 0%
Eos [5]: 1.2%
Fbg [5]: 229.4 mg/dL
Hb [5]: 12.9 g/dL
Ht [5]: 36.2%
Lym [5]: 73.6%
MCH [5]: 21.8 pg
MCHC [5]: 35.6%
MCV [5]: 61.3 fL
Mono [5]: 2.8%
Neu [5]: 20.2%
PT [5]: 12.4 s
Plat [5]: 115.5 x10_4/uL
RBC [5]: 591.2 x10_4/ul
Ret [5]: 7.5%
WBC [5]: 95.9 x10_2/uL
KIDNEY_L [5]: 1 g
KIDNEY_R [5]: 1 g
KIDNEY_TOTAL [5]: 2 g
LIVER [5]: 9.5 g
A/G [5]: 1.5
ALP [5]: 832.8 IU/L
ALT [5]: 35.8 IU/L
AST [5]: 66.4 IU/L
BUN [5]: 11.6 mg/dL
CRE [5]: 0.4 mg/dL
Ca [5]: 10.7 mg/dL
Cl [5]: 102.6 meq/L
DBIL [5]: 0.072 mg/dL
GLC [5]: 181.2 mg/dL
IP [5]: 8.6 mg/dL
K [5]: 4.3 meq/L
LDH [5]: 184 IU/L
Na [5]: 139.6 meq/L
PL [5]: 134.2 mg/dL
RALB [5]: 3.2 g/dL
TBIL [5]: 0.1 mg/dL
TC [5]: 73.2 mg/dL
TG [5]: 38.4 mg/dL
TP [5]: 5.4 g/dL
gamma-GTP [5]: 1.4 IU/L
TERMINAL_BW [6]: 215.5 g
APTT [6]: 18.9 s
Bas [6]: 0%
Eos [6]: 1%
Fbg [6]: 220 mg/dL
Hb [6]: 13.2 g/dL
Ht [6]: 36.8%
Lym [6]: 73.2%
MCH [6]: 21.5 pg
MCHC [6]: 35.8%
MCV [6]: 60.2 fL
Mono [6]: 3%
Neu [6]: 19.6%
PT [6]: 12.7 s
Plat [6]: 114.8 x10_4/uL
RBC [6]: 612.4 x10_4/ul
Ret [6]: 7.5%
WBC [6]: 106.7 x10_2/uL
KIDNEY_L [6]: 1 g
KIDNEY_R [6]: 1 g
KIDNEY_TOTAL [6]: 2 g
LIVER [6]: 8.8 g
A/G [6]: 1.6
ALP [6]: 1032.8 IU/L
ALT [6]: 31.2 IU/L
AST [6]: 60.8 IU/L
BUN [6]: 13 mg/dL
CRE [6]: 0.3 mg/dL
Ca [6]: 10.4 mg/dL
Cl [6]: 104.2 meq/L
DBIL [6]: 0.06 mg/dL
GLC [6]: 194.6 mg/dL
IP [6]: 9.1 mg/dL
K [6]: 4.1 meq/L
LDH [6]: 175 IU/L
Na [6]: 140.2 meq/L
PL [6]: 133.4 mg/dL
RALB [6]: 3.3 g/dL
TBIL [6]: 0.1 mg/dL
TC [6]: 75.4 mg/dL
TG [6]: 39 mg/dL
TP [6]: 5.4 g/dL
gamma-GTP [6]: 1 IU/L
TERMINAL_BW [7]: 211.4 g
APTT [7]: 17.9 s
Bas [7]: 0%
Eos [7]: 1%
Fbg [7]: 221 mg/dL
Hb [7]: 13.1 g/dL
Ht [7]: 36.7%
Lym [7]: 70.4%
MCH [7]: 21.7 pg
MCHC [7]: 35.7%
MCV [7]: 60.7 fL
Mono [7]: 2.6%
Neu [7]: 22.8%
PT [7]: 13.1 s
Plat [7]: 112.4 x10_4/uL
RBC [7]: 604.8 x10_4/ul
Ret [7]: 7.5%
WBC [7]: 77.5 x10_2/uL
KIDNEY_L [7]: 1 g
KIDNEY_R [7]: 1 g
KIDNEY_TOTAL [7]: 2 g
LIVER [7]: 8.1 g
A/G [7]: 1.6
ALP [7]: 800.8 IU/L
ALT [7]: 29.8 IU/L
AST [7]: 58.8 IU/L
BUN [7]: 14.2 mg/dL
CRE [7]: 0.4 mg/dL
Ca [7]: 10.5 mg/dL
Cl [7]: 104.8 meq/L
DBIL [7]: 0.068 mg/dL
GLC [7]: 187.4 mg/dL
IP [7]: 9.4 mg/dL
K [7]: 4.2 meq/L
LDH [7]: 173.6 IU/L
Na [7]: 140.8 meq/L
PL [7]: 119 mg/dL
RALB [7]: 3.4 g/dL
TBIL [7]: 0.1 mg/dL
TC [7]: 65 mg/dL
TG [7]: 35.6 mg/dL
TP [7]: 5.5 g/dL
gamma-GTP [7]: 1 IU/L
TERMINAL_BW [8]: 225 g
APTT [8]: 18.3 s
Bas [8]: 0%
Eos [8]: 0.8%
Fbg [8]: 289.8 mg/dL
Hb [8]: 12.9 g/dL
Ht [8]: 36.8%
Lym [8]: 60.4%
MCH [8]: 22 pg
MCHC [8]: 35.1%
MCV [8]: 62.8 fL
Mono [8]: 3%
Neu [8]: 31.4%
PT [8]: 11.8 s
Plat [8]: 115.4 x10_4/uL
RBC [8]: 585.4 x10_4/ul
Ret [8]: 7%
WBC [8]: 131.5 x10_2/uL
KIDNEY_L [8]: 1 g
KIDNEY_R [8]: 1 g
KIDNEY_TOTAL [8]: 2.1 g
LIVER [8]: 10.5 g
A/G [8]: 1.5
ALP [8]: 850.8 IU/L
ALT [8]: 36 IU/L
AST [8]: 61.4 IU/L
BUN [8]: 14.2 mg/dL
CRE [8]: 0.4 mg/dL
Ca [8]: 10.4 mg/dL
Cl [8]: 103.6 meq/L
DBIL [8]: 0.08 mg/dL
GLC [8]: 185.2 mg/dL
IP [8]: 7.8 mg/dL
K [8]: 3.8 meq/L
LDH [8]: 187.2 IU/L
Na [8]: 141.4 meq/L
PL [8]: 133.4 mg/dL
RALB [8]: 3 g/dL
TBIL [8]: 0.1 mg/dL
TC [8]: 67 mg/dL
TG [8]: 100.2 mg/dL
TP [8]: 5 g/dL
gamma-GTP [8]: 2 IU/L
